US7488742B2, “Thrombin receptor antagonists” (Schering Corporation, priority 2000, dated 2009)

Molecular target: T1, thrombin receptor (Homo sapiens, UniProt P25116)
T1 construct: tissue North Jersey Blood Center (East Orange, N.J.); host or cells: platelet membranes from platelet concentrates
T1 sequence (P25116 22-425): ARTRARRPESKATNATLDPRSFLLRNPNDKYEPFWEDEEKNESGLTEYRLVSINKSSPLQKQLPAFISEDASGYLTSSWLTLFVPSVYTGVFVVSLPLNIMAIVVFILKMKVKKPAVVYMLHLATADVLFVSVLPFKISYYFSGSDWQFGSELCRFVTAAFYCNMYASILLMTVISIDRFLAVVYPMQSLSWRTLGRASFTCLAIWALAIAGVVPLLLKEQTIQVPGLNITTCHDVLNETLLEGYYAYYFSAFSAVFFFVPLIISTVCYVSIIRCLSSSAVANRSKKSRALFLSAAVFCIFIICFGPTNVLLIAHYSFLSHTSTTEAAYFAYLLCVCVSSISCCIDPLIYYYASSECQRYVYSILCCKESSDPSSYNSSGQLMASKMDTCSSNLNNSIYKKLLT
Assay: High throughput thrombin receptor radioligand binding assay ([3H]haTRAP, platelet membranes)
Conditions: [3H]haTRAP binding to platelet membranes; read-out: thrombin receptor IC50 (concentration at which a 50% inhibition of thrombin receptor was observed)
Method: In Vitro Testing Procedure for Thrombin Receptor Antagonists:
The vessel was attached to the tritium line, frozen in liquid nitrogen and evacuated. […] At the completion of the reaction, the excess tritium was removed and the reacted peptide solution was diluted with DMF (0.5 ml) and filtered to remove the catalyst. The collected DMF solution of the crude peptide was diluted with water and freeze dried to remove the labile tritium. The solid peptide was redissolved in water and the freeze drying process repeated.
All steps were carried out at 4° C. under approved biohazard safety conditions. Platelets were centrifuged at 100×g for 20 minutes at 4° C. to remove red cells. The supernatants were decanted and centrifuged at 3000×g for 15 minutes to pellet platelets. […] This step was repeated two additional times. […] To complete membrane preparation, aliquots were thawed, pooled, and homogenized with 5 strokes of a Dounce homogenizer. Membranes were pelleted and washed 3 times in 10 mM triethanolamine-HCl, pH 7.4, 5 mM EDTA, and resuspended in 20-25 ml 50 mM Tris-HCl, pH 7.5, 10 mM MgCl2, 1 mM EGTA, and 1% DMSO.
High Throughput Thrombin Receptor Radioligand Binding Assay
Stock solutions (10 mM in 100% DMSO) of test compounds were further diluted in 100% DMSO. Unless otherwise indicated, 10 μl of diluted compound solutions and 90 μl of radioligand (a final concentration of 10 nM in 5% DMSO) were added to each well, and the reaction was started by the addition of 100 μl of membranes (40 μg protein/well). […] Compounds were tested at three concentrations (0.1, 1 and 10 μM).

IC50, 0.001 to 0.1 µM:
CC[C@H]1[C@H](/C=C/c2ccc(-c3ccccc3)cn2)[C@@H]2[C@@H](C)OC(=O)[C@]2(C(N)=O)C[C@@H]1C [Example 17H]
C[C@H]1[C@H](/C=C/c2ccc(-c3ccccc3)cn2)[C@@H]2[C@@H](C)OC(=O)[C@]2(N)C[C@@H]1C [Example 20E]
C[C@H]1[C@H](/C=C/c2ccc(-c3cccc(F)c3)cn2)[C@@H]2[C@@H](C)OC(=O)[C@]2(N)C[C@@H]1C [Example 20F]
C[C@H]1[C@H](/C=C/c2ccc(-c3ccccc3C#N)cn2)[C@@H]2[C@@H](C)OC(=O)[C@]2(N)C[C@@H]1C [Example 20H]
C[C@H]1[C@H](/C=C/c2ccc(-c3cccc(C#N)c3)cn2)[C@@H]2[C@@H](C)OC(=O)[C@]2(N)C[C@@H]1C [Example 20G]
